Measurements published in patent US7405236B2, “Indole derivatives comprising an acetylene group” (Hoffman-La Roche Inc., priority 2004, dated 2008).

Legend:
Settings in all cases: receptor binding, SPA
[1] = target: T1, PPARγ (Mus musculus, UniProt P37238); assay: PPARγ radioligand binding assay (scintillation proximity, GST-PPARγ-LBD)
T1 construct: PPARγ (aa 174 to 476); made in house; host or cells: E. coli BL21(pLysS)
T1 sequence (P37238 204-505): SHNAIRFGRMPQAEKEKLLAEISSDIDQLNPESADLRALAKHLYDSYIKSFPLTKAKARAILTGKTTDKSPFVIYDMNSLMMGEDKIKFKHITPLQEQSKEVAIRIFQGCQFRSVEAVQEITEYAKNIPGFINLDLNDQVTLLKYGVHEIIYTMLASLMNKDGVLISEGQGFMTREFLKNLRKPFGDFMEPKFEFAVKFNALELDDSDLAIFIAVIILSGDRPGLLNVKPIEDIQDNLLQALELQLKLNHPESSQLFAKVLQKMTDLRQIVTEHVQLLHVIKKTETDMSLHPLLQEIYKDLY
Description: (§1) Background information on the performed assays can be found in: Nichols J S et al. “Development of a scintillation proximity assay for peroxisome proliferator-activated receptor gamma ligand binding domain”, (1998) Anal. Biochem. 257: 112-119.
(§2) Full-length cDNA clones for humans PPARδ and PPARα and mouse PPARγ were obtained by RT-PCR from human adipose and mouse liver cRNA, respectively, cloned into plasmid vectors and verified by DNA sequencing. Bacterial and mammalian expression vectors were constructed to produce glutathione-s-transferase (GST) and Gal4 DNA binding domain proteins fused to the ligand binding domains (LBD) of PPARδ (aa 139 to 442), PPARγ (aa 174 to 476) and PPARα (aa 167 to 469). To accomplish this, the portions of the cloned sequences encoding the LBDs were amplified from the full-length clones by PCR and then subcloned into the plasmid vectors. Final clones were verified by DNA sequence analysis. […]
(§3) PPARγ receptor binding was assayed in TKE50 (50 mM Tris-HCl, pH 8, 50 mM KCl, 2 mM EDTA, 0.1 mg/ml fatty acid-free BSA and 10 mM DTT). […] All binding assays were performed in 96 well plates and the amount of bound ligand measured on a Packard TopCount using OptiPlates (Packard). Nonspecific binding was determined in the presence of 10^−4 M unlabelled compound. […]

[2] = target: T2, PPARα (Homo sapiens, UniProt Q07869); assay: PPARα radioligand binding assay (scintillation proximity, GST-PPARα-LBD)
T2 construct: PPARα (aa 167 to 469); made in house; host or cells: E. coli BL21(pLysS)
T2 sequence (Q07869 167-468 limits assumed): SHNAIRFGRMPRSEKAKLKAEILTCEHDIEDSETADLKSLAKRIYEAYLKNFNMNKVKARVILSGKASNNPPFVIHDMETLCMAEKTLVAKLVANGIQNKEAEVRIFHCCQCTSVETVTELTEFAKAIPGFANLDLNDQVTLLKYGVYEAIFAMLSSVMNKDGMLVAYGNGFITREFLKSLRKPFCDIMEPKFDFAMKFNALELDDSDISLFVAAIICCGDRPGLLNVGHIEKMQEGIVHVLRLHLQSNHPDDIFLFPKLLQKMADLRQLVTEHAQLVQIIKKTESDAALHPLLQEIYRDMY
Description: as §1, §2
as §3, with “PPARα” for “PPARγ”

[3] = target: T3, PPARδ (Homo sapiens, UniProt Q03181); assay: PPARδ radioligand binding assay (scintillation proximity, GST-PPARδ-LBD)
T3 construct: PPARδ (aa 139 to 442); made in house; host or cells: E. coli BL21(pLysS)
T3 sequence (Q03181 139-441 limits assumed): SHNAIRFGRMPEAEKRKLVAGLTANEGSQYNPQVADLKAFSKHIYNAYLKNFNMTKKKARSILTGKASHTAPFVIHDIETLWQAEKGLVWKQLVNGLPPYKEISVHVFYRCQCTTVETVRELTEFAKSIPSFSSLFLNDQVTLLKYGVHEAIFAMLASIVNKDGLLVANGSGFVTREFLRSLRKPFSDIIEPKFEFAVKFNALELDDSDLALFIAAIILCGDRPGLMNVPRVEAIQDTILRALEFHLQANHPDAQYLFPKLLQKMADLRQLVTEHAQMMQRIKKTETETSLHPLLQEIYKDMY
Description: as §1, §2
PPARδ receptor binding was assayed in HNM10 (50 mM Hepes, pH 7.4, 10 mM NaCl, 5 mM MgCl2, 0.15 mg/ml fatty acid-free BSA and 15 mM DTT). […] Radioligand was added and the reaction incubated at RT for 1 h and scintillation proximity counting performed in the presence of test compounds was determined. All binding assays were performed in 96 well plates and the amount of bound ligand was measured on a Packard TopCount using OptiPlates (Packard). […]

IC50 [1] [nM] | IC50 [2] [nM] | IC50 [3] [nM] | SMILES
> 10000 | 317 | 149 | O=C(O)Cn1ccc2ccc(OCCCC#Cc3cccc(OC(F)(F)F)c3)cc21 [Example 2, {6-[5-(3-Trifluoromethoxy-phenyl)-pent-4-ynyloxy]-indol-1-yl}-acetic acid]
> 10000 | 74 | 301 | O=C(O)Cn1ccc2cc(OCCCC#Cc3ccc(OC(F)(F)F)cc3)ccc21 [Example 6, {5-[5-(4-Trifluoromethoxy-phenyl)-pent-4-ynyloxy]-indol-1-yl}-acetic acid]
